ChEMBL document CHEMBL1201862, “PubChem BioAssay data set” (2004)
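Method: 48-hour compound exposure of cells in 96-well plates, five concentrations, linear interpolation of endpoints. At the GI50, growth is halved.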 Calls of active or inactive are those of the source. Rule as the data show it: active = GI50 up to about 1.1 µM and inactive = higher.

Tests used:
Test in all cases: growth of human tumour cells (NCI), 48 h
[1] = system: NCI-H522
[2] = system: SN12C
[3] = system: CAKI-1
[4] = system: MCF7
[5] = system: CCRF-CEM
[6] = system: NCI-H23
[7] = system: SNB-78
[8] = system: OVCAR-5
[9] = system: DU-145
[10] = system: UACC-62
[11] = system: UACC-257
[12] = system: OVCAR-8
[13] = system: NCI/ADR-RES
[14] = system: SF-539
[15] = system: HL-60
[16] = system: SF-268
[17] = system: KM-20L2
[18] = system: SK-MEL-5
[19] = system: M14
[20] = system: HOP-62
[21] = system: RPMI-8226
[22] = system: DLD-1
[23] = system: EKVX
[24] = system: SNB-19
[25] = system: NCI-H226
[26] = system: SF-295
[27] = system: TK-10
[28] = system: A549
[29] = system: PC-3
[30] = system: DMS-273
[31] = system: HCT-116
[32] = system: K562
[33] = system: KM12
[34] = system: OVCAR-3
[35] = system: NCI-H460
[36] = system: HT-29
[37] = system: HOP-92
[38] = system: MDA-MB-231
[39] = system: SK-MEL-28
[40] = system: SK-OV-3
[41] = system: SK-MEL-2
[42] = system: HCT-15
[43] = system: SW-620
[44] = system: IGROV-1
[45] = system: UO-31
[46] = system: U-251
[47] = system: MDA-N
[48] = system: MDA-MB-435
[49] = system: HOP-18
[50] = system: XF498
[51] = system: 786-0
[52] = system: COLO 205
[53] = system: MOLT-4
[54] = system: RXF 393
[55] = system: RXF 631
[56] = system: Malme-3M
[57] = system: LXFL 529
[58] = system: SNB-75
[59] = system: HCC 2998
[60] = system: M19-MEL
[61] = system: OVCAR-4
[62] = system: ACHN
[63] = system: DMS-114
[64] = system: A498
[65] = system: LOX IMVI
[66] = system: SR

Measured: GI50

COC1=C2C[C@@H](C)C[C@@H](OC)[C@@H](O)[C@H](C)/C=C(\C)[C@@H](OC(N)=O)[C@H](OC)/C=C\C=C(/C)C(=O)NC(=CC1=O)C2=O
0.265 µM: [42]
inactive: [3] 1.77 µM | [8] 6.87 µM | [13] 10.1 µM | [20] 3.38 µM | [23] 6.56 µM | [24] 10.2 µM | [25] 3.56 µM | [26] 9.38 µM | [28] 5.78 µM | [35] 1.49 µM | [46] 2.93 µM
active: [1] 0.036 µM | [2] 0.0405 µM | [4] 0.0198 µM | [5] 0.0282 µM | [6] 0.0309 µM | [7] 1.04 µM | [9] 0.106 µM | [10] 0.122 µM | [11] 0.0769 µM | [12] 0.0614 µM | [14] 0.132 µM | [15] 0.0132 µM | [16] 1.01 µM | [17] 0.0266 µM | [18] 0.678 µM | [19] 0.106 µM | [21] 0.138 µM | [22] 0.0679 µM | [27] 0.118 µM | [29] 0.122 µM | [30] 0.117 µM | [31] 0.0419 µM | [32] 0.0115 µM | [33] 0.455 µM | [34] 0.213 µM | [36] 0.0143 µM | [37] 0.112 µM | [38] 0.0421 µM | [39] 0.113 µM | [40] 1.04 µM | [41] 0.396 µM | [43] 0.0127 µM | [44] 0.29 µM | [45] 0.189 µM | [47] 0.0216 µM | [48] 0.0309 µM | [49] 0.159 µM | [50] 0.0787 µM | [51] 0.0762 µM | [52] 0.0116 µM | [53] 0.0199 µM | [54] 0.0818 µM | [55] 0.71 µM | [56] 0.044 µM | [57] 0.0267 µM

N#[N+]c1ccccc1Sc1ccc(Cl)cc1
> 100 µM: [42]
inactive: [58] > 100 µM | [59] > 100 µM | [3] > 100 µM | [5] 89.9 µM | [6] 47.8 µM | [7] > 100 µM | [8] > 100 µM | [10] > 100 µM | [60] > 100 µM | [11] > 100 µM | [12] > 100 µM | [14] > 100 µM | [15] 94 µM | [17] > 100 µM | [18] 61.2 µM | [19] > 100 µM | [20] 40.4 µM | [61] > 100 µM | [21] 52.4 µM | [22] > 100 µM | [23] > 100 µM | [25] 76.9 µM | [26] > 100 µM | [27] > 100 µM | [28] > 100 µM | [62] > 100 µM | [30] > 100 µM | [31] 74.3 µM | [63] 48.1 µM | [32] 75 µM | [33] > 100 µM | [34] > 100 µM | [35] > 100 µM | [36] > 100 µM | [39] > 100 µM | [40] > 100 µM | [41] > 100 µM | [43] > 100 µM | [44] 82.8 µM | [45] > 100 µM | [46] > 100 µM | [50] > 100 µM | [51] > 100 µM | [53] 64.7 µM | [54] 32.2 µM | [55] 67.9 µM | [56] > 100 µM | [57] > 100 µM | [64] > 100 µM

O=C1c2ccccc2C2C1N2C(=O)C(F)(F)F (configuration not stated)
inactive: [1] > 100 µM | [2] > 100 µM | [58] > 100 µM | [3] > 100 µM | [5] 25.9 µM | [6] > 100 µM | [8] > 100 µM | [10] > 100 µM | [60] > 100 µM | [11] > 100 µM | [65] 49 µM | [12] > 100 µM | [14] > 100 µM | [15] 24.7 µM | [16] > 100 µM | [17] > 100 µM | [18] > 100 µM | [19] > 100 µM | [20] > 100 µM | [61] > 100 µM | [21] > 100 µM | [22] > 100 µM | [23] > 100 µM | [24] > 100 µM | [66] 26.9 µM | [25] > 100 µM | [26] > 100 µM | [27] > 100 µM | [28] > 100 µM | [62] > 100 µM | [30] > 100 µM | [31] > 100 µM | [63] 39.9 µM | [32] 44.2 µM | [33] > 100 µM | [34] > 100 µM | [35] > 100 µM | [36] 74.8 µM | [37] > 100 µM | [39] > 100 µM | [40] > 100 µM | [41] > 100 µM | [43] > 100 µM | [44] > 100 µM | [45] > 100 µM | [46] > 100 µM | [49] > 100 µM | [50] > 100 µM | [51] > 100 µM | [52] > 100 µM | [53] > 100 µM | [54] > 100 µM | [55] 94.6 µM | [56] > 100 µM | [57] > 100 µM | [64] > 100 µM
> 100 µM: [42]

CCOC(=O)C1=C(OC(OCC)C(CC)[Se]c2ccccc2)CCCC1 (configuration not stated)
16.9 µM: [42]
inactive: [1] 14.6 µM | [2] 14.6 µM | [58] 16.9 µM | [59] 13.4 µM | [3] 37.3 µM | [5] 11.4 µM | [6] 10.9 µM | [7] 22.3 µM | [8] 26.3 µM | [10] 19.8 µM | [60] 15.6 µM | [11] 35 µM | [65] 4.54 µM | [12] 19.1 µM | [14] 17.8 µM | [15] 15.9 µM | [16] 19 µM | [17] 19.8 µM | [18] 12.6 µM | [19] 15.6 µM | [20] 54.2 µM | [61] 14.5 µM | [21] 13 µM | [22] 17.5 µM | [23] 34.4 µM | [24] 40.6 µM | [25] 21.8 µM | [26] 19.1 µM | [27] > 100 µM | [28] 45.3 µM | [62] 28.1 µM | [30] 15.1 µM | [31] 17.5 µM | [32] 34.2 µM | [33] > 100 µM | [34] 21.1 µM | [35] 36.4 µM | [36] 24.7 µM | [37] 21.2 µM | [39] 40.5 µM | [40] > 100 µM | [41] 8.32 µM | [44] 26.8 µM | [45] 35.3 µM | [46] 12.6 µM | [49] 29.7 µM | [50] 20 µM | [51] 15.6 µM | [52] 34.7 µM | [53] 14.7 µM | [54] 20.5 µM | [55] 10.2 µM | [56] 16.9 µM | [57] 20.5 µM | [64] > 100 µM

COC(=O)[C@@H]1C(=O)O[C@@H](c2ccc(OC)c(OC)c2OC)[C@@H]1C(=O)OC.COC(=O)[C@H]1C(=O)O[C@@H](c2ccc(OC)c(OC)c2OC)[C@@H]1C(=O)OC
> 100 µM: [42]
inactive: [1] > 100 µM | [2] > 100 µM | [58] > 100 µM | [59] > 100 µM | [3] > 100 µM | [5] > 100 µM | [6] > 100 µM | [7] > 100 µM | [8] > 100 µM | [10] > 100 µM | [60] > 100 µM | [11] > 100 µM | [65] > 100 µM | [12] > 100 µM | [14] > 100 µM | [15] > 100 µM | [16] > 100 µM | [17] > 100 µM | [18] > 100 µM | [19] > 100 µM | [20] > 100 µM | [61] > 100 µM | [21] > 100 µM | [22] > 100 µM | [23] > 100 µM | [24] > 100 µM | [66] > 100 µM | [25] > 100 µM | [26] > 100 µM | [27] > 100 µM | [28] > 100 µM | [62] > 100 µM | [30] > 100 µM | [31] > 100 µM | [63] > 100 µM | [32] > 100 µM | [33] > 100 µM | [34] > 100 µM | [35] > 100 µM | [36] > 100 µM | [37] > 100 µM | [39] > 100 µM | [40] > 100 µM | [43] > 100 µM | [44] > 100 µM | [45] > 100 µM | [46] > 100 µM | [50] > 100 µM | [51] > 100 µM | [52] > 100 µM | [53] > 100 µM | [54] > 100 µM | [55] > 100 µM | [56] > 100 µM | [57] > 100 µM | [64] > 100 µM
